In patent US20240124491A1, “METHODS AND COMPOUNDS FOR TREATING FRIEDREICH'S ATAXIA” (Design Therapeutics, Inc., priority 2021, published 2024):

System: human FXN
Experiment: EC50 assay: FXN mRNA expression by qRT-PCR in GM15850 cells after 48 hrs compound treatment
Format: cell-based
Details: Homo sapiens, 48 hrs incubation, hFXN expression normalized to hGAPDH (qRT-PCR), read-out: EC50 WT (nM, 48 hr)
Outline: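 FXN transcript, normalized to GAPDH by TaqMan qRT-PCR, read out after 48 hrs of compound on GM15850 cells plated at 150,000 per well. Dosing used five 3-fold steps from 150 nM final, vehicle 0.01% DMSO.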

`Cc1sc2c(c1C)C(c1ccc(Cl)cc1)=N[C@@H](CC(=O)Nc1cncc(N3CCC(N4CCN(CCOCCOCCOCCOCCOCCOCCNC(=O)CCNC(=O)c5nc(NC(=O)CCNC(=O)c6cc(NC(=O)c7nc(NC(=O)CCNC(=O)c8cc(NC(=O)c9nccn9C)cn8C)cn7C)cn6C)cn5C)CC4)CC3)c1)c1nnc(C)n1-2` [Compound 125] gave an EC50 of under 100 nM.
Compound `Cc1sc2c(c1C)C(c1ccc(Cl)cc1)=N[C@@H](CC(=O)N1CC(C#CC#CC3CN(CCOCCOCCOCCOCCNC(=O)CCNC(=O)c4nc(NC(=O)CCNC(=O)c5cc(NC(=O)c6nc(NC(=O)CCNC(=O)c7cc(NC(=O)c8nccn8C)cn7C)cn6C)cn5C)cn4C)C3)C1)c1nnc(C)n1-2` [Compound 126] has an EC50 of under 100 nM.
In the case of `Cc1sc2c(c1C)C(c1ccc(Cl)cc1)=N[C@@H](CC(=O)N1CC(C#CC#CC3CN(CCOCCOCCOCCOCCOCCOCCNC(=O)CCNC(=O)c4nc(NC(=O)CCNC(=O)c5cc(NC(=O)c6nc(NC(=O)CCNC(=O)c7cc(NC(=O)c8nccn8C)cn7C)cn6C)cn5C)cn4C)C3)C1)c1nnc(C)n1-2` [Compound 127], the EC50 is reported as under 100 nM.
Work on `Cc1sc2c(c1C)C(c1ccc(Cl)cc1)=N[C@@H](CC(=O)NC(C)(C)C#CC#CCNCCOCCOCCOCCOCCOCCOCCNC(=O)CCNC(=O)c1nc(NC(=O)CCNC(=O)c3cc(NC(=O)c4nc(NC(=O)CCNC(=O)c5cc(NC(=O)c6nccn6C)cn5C)cn4C)cn3C)cn1C)c1nnc(C)n1-2` [Compound 130] yielded an EC50 of under 100 nM.
Compound `Cc1c(C(=O)NCCN2CCN(C)CC2)sc2c1C(c1ccc(Cl)cc1)=N[C@@H](CC(=O)N1CCC(C#CC#CC3CCN(CCOCCOCCOCCOCCNC(=O)CCNC(=O)c4nc(NC(=O)CCNC(=O)c5cc(NC(=O)c6nc(NC(=O)CCNC(=O)c7cc(NC(=O)c8nccn8C)cn7C)cn6C)cn5C)cn4C)CC3)CC1)c1nnc(C)n1-2` [Compound 131] has an EC50 of 100 to 500 nM.
In the case of `COCCOCCOCCOCCOCCOCCOCCOCCOCCOCCOCCNC(=O)c1sc2c(c1C)C(c1ccc(Cl)cc1)=N[C@@H](CC(=O)N1CCC(C#CC#CC3CCN(CCOCCOCCOCCOCCNC(=O)CCNC(=O)c4nc(NC(=O)CCNC(=O)c5cc(NC(=O)c6nc(NC(=O)CCNC(=O)c7cc(NC(=O)c8nccn8C)cn7C)cn6C)cn5C)cn4C)CC3)CC1)c1nnc(C)n1-2` [Compound 133], the EC50 is reported as 100 to 500 nM.
For `Cc1c(C(=O)N2CCC(C#CC#CC3CCN(CCOCCOCCOCCOCCNC(=O)CCNC(=O)c4nc(NC(=O)CCNC(=O)c5cc(NC(=O)c6nc(NC(=O)CCNC(=O)c7cc(NC(=O)c8nccn8C)cn7C)cn6C)cn5C)cn4C)CC3)CC2)sc2c1C(c1ccc(Cl)cc1)=N[C@@H](CC(=O)NCCN1CCN(C)CC1)c1nnc(C)n1-2` [Compound 134], the EC50 was 100 to 500 nM.
Compound `Cc1cc(F)cc(C)c1Oc1ccc(C(C)(C)O)cc1-c1cn(C)c(=O)c2[nH]c(C(=O)N3CCC(C#CC#CC4CCN(CCOCCOCCOCCOCCNC(=O)CCNC(=O)c5nc(NC(=O)CCNC(=O)c6cc(NC(=O)c7nc(NC(=O)CCNC(=O)c8cc(NC(=O)c9nccn9C)cn8C)cn7C)cn6C)cn5C)CC4)CC3)cc12` [Compound 135] has an EC50 of 100 to 500 nM.
`CC(=O)Nc1c(O[C@@H](C)c2ccccc2)cc(C=O)c(N2CCC(C#CC#CC3CCN(CCOCCOCCOCCOCCNC(=O)CCNC(=O)c4nc(NC(=O)CCNC(=O)c5cc(NC(=O)c6nc(NC(=O)CCNC(=O)c7cc(NC(=O)c8nccn8C)cn7C)cn6C)cn5C)cn4C)CC3)CC2)c1F` [Compound 136] gave an EC50 of over 500 nM.
Compound `Cc1sc2c(c1C)C(c1ccc(Cl)cc1)=N[C@@H](CC(=O)N1CCC(C#CC#CC3CCN(CCOCCOCCNC(=O)CCNC(=O)c4nc(NC(=O)CCNC(=O)c5cc(NC(=O)c6nc(NC(=O)CCNC(=O)c7cc(NC(=O)c8nccn8C)cn7C)cn6C)cn5C)cn4C)CC3)CC1)c1nnc(C)n1-2` [Compound 138] has an EC50 of under 100 nM.
With `Cc1sc2c(c1C)C(c1ccc(Cl)cc1)=N[C@@H](CC(=O)N1CCC(C#CC#CC3CCN(CCOCCOCCOCCNC(=O)CCNC(=O)c4nc(NC(=O)CCNC(=O)c5cc(NC(=O)c6nc(NC(=O)CCNC(=O)c7cc(NC(=O)c8nccn8C)cn7C)cn6C)cn5C)cn4C)CC3)CC1)c1nnc(C)n1-2` [Compound 139] the EC50 was under 100 nM.
`Cc1sc2c(c1C)C(c1ccc(Cl)cc1)=N[C@@H](CC(=O)N1CCC(C#CC#CC3CCN(CCOCCOCCOCCOCCOCCNC(=O)CCNC(=O)c4nc(NC(=O)CCNC(=O)c5cc(NC(=O)c6nc(NC(=O)CCNC(=O)c7cc(NC(=O)c8nccn8C)cn7C)cn6C)cn5C)cn4C)CC3)CC1)c1nnc(C)n1-2` [Compound 140] was tested, and the EC50 was under 100 nM.
`Cc1sc2c(c1C)C(c1ccc(Cl)cc1)=N[C@@H](CC(=O)N1CCC(C#CC#CC3CCN(CCOCCOCCOCCOCCOCCOCCNC(=O)CCNC(=O)c4nc(NC(=O)CCNC(=O)c5cc(NC(=O)c6nc(NC(=O)CCNC(=O)c7cc(NC(=O)c8nccn8C)cn7C)cn6C)cn5C)cn4C)CC3)CC1)c1nnc(C)n1-2` [Compound 141] showed an EC50 of under 100 nM.
In the case of `Cc1sc2c(c1C)C(c1ccc(Cl)cc1)=N[C@@H](CC(=O)N1CCC(C#CC#CC3CCN(CCOCCOCCOCCOCCOCCOCCOCCNC(=O)CCNC(=O)c4nc(NC(=O)CCNC(=O)c5cc(NC(=O)c6nc(NC(=O)CCNC(=O)c7cc(NC(=O)c8nccn8C)cn7C)cn6C)cn5C)cn4C)CC3)CC1)c1nnc(C)n1-2` [Compound 142], the EC50 is reported as under 100 nM.
Work on `CC(=O)N1c2ccc(-c3ccc(C(=O)N4CCC(C#CC#CC5CCN(CCOCCOCCNC(=O)CCNC(=O)c6nc(NC(=O)CCNC(=O)c7cc(NC(=O)c8nc(NC(=O)CCNC(=O)c9cc(NC(=O)c%10nccn%10C)cn9C)cn8C)cn7C)cn6C)CC5)CC4)cc3)cc2C(Nc2ccc(Cl)cc2)C[C@@H]1C` (stereo partly shown) [Compound 144] yielded an EC50 of under 100 nM.
`CC(=O)N1c2ccc(-c3ccc(C(=O)N4CCC(C#CC#CC5CCN(CCOCCOCCOCCOCCNC(=O)CCNC(=O)c6nc(NC(=O)CCNC(=O)c7cc(NC(=O)c8nc(NC(=O)CCNC(=O)c9cc(NC(=O)c%10nccn%10C)cn9C)cn8C)cn7C)cn6C)CC5)CC4)cc3)cc2C(Nc2ccc(Cl)cc2)C[C@@H]1C` (stereo partly shown) [Compound 145] gave an EC50 of under 100 nM.
Compound `CC(=O)N1c2ccc(-c3ccc(C(=O)N4CCC(C#CC#CC5CCN(CCOCCOCCOCCOCCOCCOCCNC(=O)CCNC(=O)c6nc(NC(=O)CCNC(=O)c7cc(NC(=O)c8nc(NC(=O)CCNC(=O)c9cc(NC(=O)c%10nccn%10C)cn9C)cn8C)cn7C)cn6C)CC5)CC4)cc3)cc2C(Nc2ccc(Cl)cc2)C[C@@H]1C` (stereo partly shown) [Compound 150] has an EC50 of under 100 nM.
With `Cc1sc2c(c1C)C(c1ccc(Cl)cc1)=N[C@@H](CC(=O)NC1CCN(C(C)(C)C#CC#CC3CCN(CCOCCOCCOCCOCCOCCNC(=O)CCNC(=O)c4nc(NC(=O)CCNC(=O)c5cc(NC(=O)c6nc(NC(=O)CCNC(=O)c7cc(NC(=O)c8nccn8C)cn7C)cn6C)cn5C)cn4C)CC3)CC1)c1nnc(C)n1-2` [Compound 151] the EC50 was under 100 nM.
In the case of `Cc1sc2c(c1C)C(c1ccc(Cl)cc1)=N[C@@H](CC(=O)NC1CCN(CC#CC#CC3CCN(CCOCCOCCNC(=O)CCNC(=O)c4nc(NC(=O)CCNC(=O)c5cc(NC(=O)c6nc(NC(=O)CCNC(=O)c7cc(NC(=O)c8nccn8C)cn7C)cn6C)cn5C)cn4C)CC3)CC1)c1nnc(C)n1-2` [Compound 155], the EC50 is reported as under 100 nM.
With `Cc1sc2c(c1C)C(c1ccc(Cl)cc1)=N[C@@H](CC(=O)NC1CCN(CC#CC#CC3CCN(CCOCCOCCOCCNC(=O)CCNC(=O)c4nc(NC(=O)CCNC(=O)c5cc(NC(=O)c6nc(NC(=O)CCNC(=O)c7cc(NC(=O)c8nccn8C)cn7C)cn6C)cn5C)cn4C)CC3)CC1)c1nnc(C)n1-2` [Compound 156] the EC50 was under 100 nM.
`Cc1sc2c(c1C)C(c1ccc(Cl)cc1)=N[C@@H](CC(=O)NC1CCN(CC#CC#CC3CCN(CCOCCOCCOCCOCCOCCOCCOCCNC(=O)CCNC(=O)c4nc(NC(=O)CCNC(=O)c5cc(NC(=O)c6nc(NC(=O)CCNC(=O)c7cc(NC(=O)c8nccn8C)cn7C)cn6C)cn5C)cn4C)CC3)CC1)c1nnc(C)n1-2` [Compound 157] was tested, and the EC50 was under 100 nM.
`Cc1cc(F)cc(C)c1Oc1ccc(C(C)(C)O)cc1-c1cn(C)c(=O)c2[nH]c(C(=O)NC3CCN(CC#CC#CC4CCN(CCOCCOCCOCCOCCOCCNC(=O)CCNC(=O)c5nc(NC(=O)CCNC(=O)c6cc(NC(=O)c7nc(NC(=O)CCNC(=O)c8cc(NC(=O)c9nccn9C)cn8C)cn7C)cn6C)cn5C)CC4)CC3)cc12` [Compound 158] was tested, and the EC50 was under 100 nM.
`Cc1sc2c(c1C)C(c1ccc(Cl)cc1)=N[C@@H](CC(=O)NC1CCN(C(C)(C)C#CC#CCNCCOCCOCCOCCOCCOCCNC(=O)CCNC(=O)c3nc(NC(=O)CCNC(=O)c4cc(NC(=O)c5nc(NC(=O)CCNC(=O)c6cc(NC(=O)c7nccn7C)cn6C)cn5C)cn4C)cn3C)CC1)c1nnc(C)n1-2` [Compound 159] gave an EC50 of under 100 nM.
`Cc1sc2c(c1C)C(c1ccc(Cl)cc1)=N[C@@H](CC(=O)N1CCC(C#CC#CC3CCN(CCOCCNC(=O)CCNC(=O)c4nc(NC(=O)CCNC(=O)c5cc(NC(=O)c6nc(NC(=O)CCNC(=O)c7cc(NC(=O)c8nccn8C)cn7C)cn6C)cn5C)cn4C)CC3)CC1)c1nnc(C)n1-2` [Compound 160] showed an EC50 of under 100 nM.
`Cc1sc2c(c1C)C(c1ccc(Cl)cc1)=N[C@@H](CC(=O)N1CCC(C#CC#CC3CCN(CCNC(=O)CCNC(=O)c4nc(NC(=O)CCNC(=O)c5cc(NC(=O)c6nc(NC(=O)CCNC(=O)c7cc(NC(=O)c8nccn8C)cn7C)cn6C)cn5C)cn4C)CC3)CC1)c1nnc(C)n1-2` [Compound 161] showed an EC50 of under 100 nM.
Work on `Cc1sc2c(c1C)C(c1ccc(Cl)cc1)=N[C@@H](CC(=O)N1CCC(C#CC#CCNCCOCCNC(=O)CCNC(=O)c3nc(NC(=O)CCNC(=O)c4cc(NC(=O)c5nc(NC(=O)CCNC(=O)c6cc(NC(=O)c7nccn7C)cn6C)cn5C)cn4C)cn3C)CC1)c1nnc(C)n1-2` [Compound 163] yielded an EC50 of under 100 nM.
`Cc1sc2c(c1C)C(c1ccc(Cl)cc1)=N[C@@H](CC(=O)N1CCC(C#CC#CCNC(=O)CCNC(=O)c3nc(NC(=O)CCNC(=O)c4cc(NC(=O)c5nc(NC(=O)CCNC(=O)c6cc(NC(=O)c7nccn7C)cn6C)cn5C)cn4C)cn3C)CC1)c1nnc(C)n1-2` [Compound 164] was tested, and the EC50 was over 500 nM.
`Cc1cc(F)cc(C)c1Oc1ccc(C(C)(C)O)cc1-c1cn(C)c(=O)c2[nH]c(C(=O)N3CCN(CC4CCN(CCOCCOCCOCCOCCOCCOCCNC(=O)CCNC(=O)c5nc(NC(=O)CCNC(=O)c6cc(NC(=O)c7nc(NC(=O)CCNC(=O)c8cc(NC(=O)c9nccn9C)cn8C)cn7C)cn6C)cn5C)CC4)CC3)cc12` [Compound 167] was tested, and the EC50 was over 500 nM.
